In PubChem BioAssay AID1963846 (Molecular Pharmacology Branch, DTP, NCI, 2024):

System: 454973-116-R2-J3-PDC complex spheroid viability
Test: Anticancer human tumor 454973-116-R2-J3-PDC patient-derived pancreatic carcinoma cell line growth inhibition [POLQ]
Settings: for IC50: curve of first compound; for viability, T/C: stronger effect = lower value; active means viability on the fitted dose curve at most 10% of control; inactive means the rest
Outline: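 PDC + HUVEC + MSC complex spheroids; POLQ inhibitors ± partner drugs; top conc. at/near clinical Cmax, else 10 microM (SN-38 1 microM), half-log dilutions; 37 degrees C, 5% CO2.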

[1] = second compound 0.0316 µM, first compound 0.0316 µM
[2] = second compound 0.0316 µM, first compound 0.1 µM
[3] = second compound 0.0316 µM, first compound 0.316 µM
[4] = second compound 0.0316 µM, first compound 1 µM
[5] = second compound 0.0316 µM, first compound 3.16 µM
[6] = second compound 0.0316 µM, first compound 10 µM
[7] = second compound 0.1 µM, first compound 0.0316 µM
[8] = second compound 0.1 µM, first compound 0.1 µM
[9] = second compound 0.1 µM, first compound 0.316 µM
[10] = second compound 0.1 µM, first compound 1 µM
[11] = second compound 0.1 µM, first compound 3.16 µM
[12] = second compound 0.1 µM, first compound 10 µM
[13] = second compound 0.316 µM, first compound 0.0316 µM
[14] = second compound 0.316 µM, first compound 0.1 µM
[15] = second compound 0.316 µM, first compound 0.316 µM
[16] = second compound 0.316 µM, first compound 1 µM
[17] = second compound 0.316 µM, first compound 3.16 µM
[18] = second compound 0.316 µM, first compound 10 µM
[19] = second compound 1 µM, first compound 0.0316 µM
[20] = second compound 1 µM, first compound 0.1 µM
[21] = second compound 1 µM, first compound 0.316 µM
[22] = second compound 1 µM, first compound 1 µM
[23] = second compound 1 µM, first compound 3.16 µM
[24] = second compound 1 µM, first compound 10 µM
[25] = second compound 3.16 µM, first compound 0.0316 µM
[26] = second compound 3.16 µM, first compound 0.1 µM
[27] = second compound 3.16 µM, first compound 0.316 µM
[28] = second compound 3.16 µM, first compound 1 µM
[29] = second compound 3.16 µM, first compound 3.16 µM
[30] = second compound 3.16 µM, first compound 10 µM
[31] = second compound 10 µM, first compound 0.0316 µM
[32] = second compound 10 µM, first compound 0.1 µM
[33] = second compound 10 µM, first compound 0.316 µM
[34] = second compound 10 µM, first compound 1 µM
[35] = second compound 10 µM, first compound 3.16 µM
[36] = second compound 10 µM, first compound 10 µM
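Further: spheroids exposed to drugs for seven days before measurement.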
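Wherever viability, T/C is given: percent viability relative to DMSO vehicle control wells taken as 100%.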

CCCS(=O)(=O)Nc1ccc(F)c(C(=O)c2c[nH]c3ncc(-c4ccc(Cl)cc4)cc23)c1F + COC1C(OC(N)=O)C(O)C(Oc2ccc3c(O)c(NC(=O)c4ccc(O)c(CC=C(C)C)c4)c(=O)oc3c2C)OC1(C)C
inactive: viability, T/C [1] 98.9% | viability, T/C [2] 106% | viability, T/C [3] 101% | viability, T/C [4] 114% | viability, T/C [5] 110% | viability, T/C [6] 47.5% | viability, T/C [7] 98.9% | viability, T/C [8] 118% | viability, T/C [9] 103% | viability, T/C [10] 113% | viability, T/C [11] 109% | viability, T/C [12] 54.8% | viability, T/C [13] 107% | viability, T/C [14] 114% | viability, T/C [15] 103% | viability, T/C [16] 110% | viability, T/C [17] 103% | viability, T/C [18] 57.3% | viability, T/C [19] 120% | viability, T/C [20] 107% | viability, T/C [21] 109% | viability, T/C [22] 117% | viability, T/C [23] 108% | viability, T/C [24] 57.3% | viability, T/C [25] 112% | viability, T/C [26] 109% | viability, T/C [27] 103% | viability, T/C [28] 106% | viability, T/C [29] 105% | viability, T/C [30] 62.8% | viability, T/C [31] 114% | viability, T/C [32] 104% | viability, T/C [33] 97.2% | viability, T/C [34] 106% | viability, T/C [35] 109% | viability, T/C [36] 65.5%
9.52 µM: IC50 (second compound 0.0316 µM)
> 10 µM: IC50 (second compound 0.1 µM) | IC50 (second compound 0.316 µM) | IC50 (second compound 1 µM) | IC50 (second compound 3.16 µM) | IC50 (second compound 10 µM)

CC(C)n1c(=O)n(C)c2cnc3cc(F)c(-c4ccc(OCCCN5CCCCC5)nc4)cc3c21 + Nc1ccc(C#CCN(C(=O)Cc2ncc(C(F)(F)F)cc2C(F)(F)F)c2ccc(F)cc2)nn1
> 10 µM: IC50 (second compound 0.0316 µM) | IC50 (second compound 0.1 µM) | IC50 (second compound 0.316 µM) | IC50 (second compound 1 µM) | IC50 (second compound 3.16 µM) | IC50 (second compound 10 µM)
inactive: viability, T/C [1] 101% | viability, T/C [2] 96% | viability, T/C [3] 101% | viability, T/C [4] 96.7% | viability, T/C [5] 102% | viability, T/C [6] 75.8% | viability, T/C [7] 99.3% | viability, T/C [8] 100% | viability, T/C [9] 103% | viability, T/C [10] 115% | viability, T/C [11] 99.6% | viability, T/C [12] 76.1% | viability, T/C [13] 102% | viability, T/C [14] 102% | viability, T/C [15] 117% | viability, T/C [16] 103% | viability, T/C [17] 101% | viability, T/C [18] 83.8% | viability, T/C [19] 114% | viability, T/C [20] 106% | viability, T/C [21] 108% | viability, T/C [22] 114% | viability, T/C [23] 106% | viability, T/C [24] 74.7% | viability, T/C [25] 111% | viability, T/C [26] 113% | viability, T/C [27] 105% | viability, T/C [28] 114% | viability, T/C [29] 101% | viability, T/C [30] 83.8% | viability, T/C [31] 123% | viability, T/C [32] 107% | viability, T/C [33] 114% | viability, T/C [34] 114% | viability, T/C [35] 104% | viability, T/C [36] 76.9%

C=CCn1c(=O)c2cnc(Nc3ccc(N4CCN(C)CC4)cc3)nc2n1-c1cccc(C(C)(C)O)n1 + Nc1ccc(C#CCN(C(=O)Cc2ncc(C(F)(F)F)cc2C(F)(F)F)c2ccc(F)cc2)nn1
inactive: viability, T/C (second compound 0.0316 µM, first compound 0.00316 µM) 108% | viability, T/C (second compound 0.0316 µM, first compound 0.01 µM) 100% | viability, T/C [1] 104% | viability, T/C [2] 99% | viability, T/C [3] 68.7% | viability, T/C (second compound 0.1 µM, first compound 0.00316 µM) 106% | viability, T/C (second compound 0.1 µM, first compound 0.01 µM) 102% | viability, T/C [7] 102% | viability, T/C [8] 104% | viability, T/C [9] 68.5% | viability, T/C (second compound 0.316 µM, first compound 0.00316 µM) 99.3% | viability, T/C (second compound 0.316 µM, first compound 0.01 µM) 109% | viability, T/C [13] 106% | viability, T/C [14] 107% | viability, T/C [15] 79.3% | viability, T/C [16] 10.2% | viability, T/C (second compound 1 µM, first compound 0.00316 µM) 105% | viability, T/C (second compound 1 µM, first compound 0.01 µM) 101% | viability, T/C [19] 114% | viability, T/C [20] 114% | viability, T/C [21] 62.3% | viability, T/C (second compound 3.16 µM, first compound 0.00316 µM) 105% | viability, T/C (second compound 3.16 µM, first compound 0.01 µM) 114% | viability, T/C [25] 115% | viability, T/C [26] 114% | viability, T/C [27] 72.7% | viability, T/C (second compound 10 µM, first compound 0.00316 µM) 116% | viability, T/C (second compound 10 µM, first compound 0.01 µM) 116% | viability, T/C [31] 129% | viability, T/C [32] 112% | viability, T/C [33] 65%
active: viability, T/C [4] 9.62% | viability, T/C [10] 8.41% | viability, T/C [22] 6.99% | viability, T/C [28] 8.66% | viability, T/C [34] 6.21%
0.408 µM: IC50 (second compound 1 µM)
0.475 µM: IC50 (second compound 3.16 µM)
0.515 µM: IC50 (second compound 0.316 µM)
0.451 µM: IC50 (second compound 0.1 µM)
0.423 µM: IC50 (second compound 10 µM)
0.455 µM: IC50 (second compound 0.0316 µM)
